Assay results taken from patent publication US10336724B2, “D-amino acid oxidase inhibitors and therapeutic uses thereof” (SyneuRx International (Taiwan) Corp., priority 2017, dated 2019).
“Also recorded” adds a separate entry of the source.

Assays:
hDAAO (human DAAO) = hDAAO (human DAAO) (Homo sapiens (Human), UniProt P14920); experiment: hDAAO (human DAAO) activity, D-serine substrate, Amplex Red fluorescence; format: biochemical
Procedure: The hDAAO (human DAAO) activity was measured by using D-serine as a substrate to produce H2O2. The produced H2O2 would be oxidized by peroxidase, and the produced free radicals would further react with Amplex Red reagent to emit fluorescence. The intensity of fluorescence at 590 nm would be measured to represent the activity of hDAAO. All compounds were dissolved in DMSO. Each compound was diluted with DMSO in 3-fold serial dilution to create a 9-point dose response curve. Each sample was added in triplicate, 1 μL/well, into 96-well black plates. Positive control wells were added with 1 μL of DMSO. Then 49 μL of assay buffer (100 mM Tris-HCl, pH 8.5) containing 1.2 ng/mL hDAAO, 900 nM FAD, 0.2 units/mL HRP, and 100 μM Amplex Red was added to each well of the plate using a multichannel pipette. Next, 50 μL of 100 mM D-Serine in assay buffer was added. The reaction plates were then incubated in the dark at room temperature. The fluorescence readout was detected at 0 and 20 minute by Molecular Device Gemini EM fluorescence reader using the following settings: excitation filter 530 nm, and emission filter 590 nm. The percentage of inhibition values for each well was calculated with the following equation: The percentage of inhibition=(fluorescencesample, 20 min−fluorescencesample, 0 min)/(fluorescenceDMSO, 20 min−fluorescenceDMSO, 0 min)×100%
The nonlinear curve fitting model in GraphPad Prism 5 was used to calculate IC50 value for each compound.

mice = experiment: Spontaneous locomotion in open field; format: in vivo; conditions: oral, 446 and 892 mg/kg, 120 minutes observation
Procedure: (§1) The mice were group housed (3-5 mice per cage) with food and water available ad libitum in polysulfone ventilated cages (Alternative Design, AR, USA) in the animal rooms of SyneuRx International (Taiwan) Corp. The colony was maintained on a 12/12-hr light/dark cycle at the temperature of 22±2° C. and all behavioral studies were performed during the dark cycle. All animals used in this study were adult mice (at least 2.5 months of age). All animal procedures were performed according to the protocols approved by Institutional Animal Care and Use Committee (IACUC).
The compound of Example 1 was placed into 100% PEG400, and was sonic vibrated until solution became clear. […]
Mice that received oral administration of either vehicle or low/high dose of the compound of Example 1 was immediately subjected to open field test and the index of spontaneous locomotion was expressed as total travel distance measured within the defined time frame.
(§2) The mice were placed in a Plexiglas cage (37.5 cm×21.5 cm×18 cm) under 50-65 lux light intensity, the spontaneous locomotion was measured for 120 minutes using the EthoVision video tracking system (Noldus Information Technology, the Netherlands). The travel distance of each mouse was measured as an index of spontaneous locomotion.

MK801-treated mice [1] = experiment: Open field task, MK801-induced hyper-locomotion; format: in vivo; conditions: Example 1 446 or 892 mg/kg orally 20 min prior to MK801 0.1 mg/kg i.p.; 120 minutes testing period
Procedure: as §2
as §1, with “rooms of the SyneuRx International” for “rooms of SyneuRx International”, “performed during dark cycle.” for “performed during the dark cycle.”, “approved by the Institutional Animal” for “approved by Institutional Animal”, “Committee (IACUC). […]” for “Committee (IACUC).”
(§3) All mice in the experiments were tested by open field task and pre-pulse inhibition with at least 1-week interval between two tasks. […] The percentage of pre-pulse inhibition was calculated by the following formula: % PPI=100×[(PA score)−(pp-P score)]/(PA score), where the PA score was the average of the PA value in the middle blocks. […]

MK801-treated mice [2] = experiment: Pre-pulse inhibition (PPI) test, MK801-induced deficit of sensorimotor gating; format: in vivo; conditions: Example 1 446 or 892 mg/kg orally 20 min prior to MK801 0.2 mg/kg i.p.; each pre-pulse intensity
Procedure: The mice were group housed (3-5 mice per cage) with food and water available ad libitum in polysulfone ventilated cages (Alternative Design, AR, USA) in the animal rooms of the SyneuRx International (Taiwan) Corp. The colony was maintained on a 12/12-hr light/dark cycle at the temperature of 22±2° C. and all behavioral studies were performed during dark cycle. All animals used in this study were adult mice (at least 2.5 months of age). All animal procedures were performed according to the protocols approved by the Institutional Animal Care and Use Committee (IACUC). The mice were randomly assigned into four groups, Group 1: vehicle control, Group 2: MK801, Group 3: Example 1 at 446 mg/kg+MK801, Group 4: Example 1 at 892 mg/kg+MK801. […]
as §3

hDAAO (human DAAO), sequence (P14920 whole entry): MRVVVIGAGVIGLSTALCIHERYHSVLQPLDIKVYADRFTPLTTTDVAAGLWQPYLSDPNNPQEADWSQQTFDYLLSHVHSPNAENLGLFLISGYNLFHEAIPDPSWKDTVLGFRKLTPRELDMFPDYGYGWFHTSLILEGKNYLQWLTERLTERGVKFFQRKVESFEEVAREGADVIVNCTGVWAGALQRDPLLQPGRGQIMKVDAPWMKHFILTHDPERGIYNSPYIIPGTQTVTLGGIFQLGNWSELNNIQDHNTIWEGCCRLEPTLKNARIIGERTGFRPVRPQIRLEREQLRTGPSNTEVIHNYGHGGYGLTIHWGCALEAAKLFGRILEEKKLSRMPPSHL

Compound	IC50 (hDAAO (human DAAO))	spontaneous locomotion (total travel distance) versus vehicle (mice)	locomotion activity in open field task compared to control group (MK801-treated mice [1])	percentage of pre-pulse inhibition compared to control group (MK801-treated mice [2])
O=C(Oc1coc(CO)cc1=O)c1ccc[nH]1 [Compound 1, 6-(hydroxymethyl)-4-oxo-4H-pyran-3-yl 1H-pyrrole-2-carboxylate]	100 to 500 µM	no significant difference between groups	equal level of locomotion activity as mice in the control group; also recorded: reversed/protected MK801-induced hyper-locomotion activity	the same level of pre-pulse inhibition percentage; also recorded: rescued/protected the MK801-induced PPI deficits
C[C@]12N[C@H](Cc3ccccc31)c1ccccc12 [MK801, reference compound]			displayed hyper-locomotion	lower percentage of pre-pulse inhibition
